# Results as given in patent publication US20180200257A1, “METHODS FOR THE TREATMENT OF INFLAMMATORY DISORDERS” (Galapagos NV, priority 2015, published 2018).
# Test system: Subjects With Active Crohn's Disease With Evidence of Mucosal Ulceration
# Experiment: Study 3 - Aspartate Aminotransferase (AST) levels
# Type: in vivo, human
# Description: Double-Blind, Randomized, Placebo-Controlled, Multi-Centre Study to Investigate the Efficacy and Safety of Compound 1 in Subjects With Active Crohn's Disease With Evidence of Mucosal Ulceration. This is a double-blind, randomized, placebo-controlled, multi-centre Phase 2 study to investigate the efficacy and safety of Compound 1 administered once daily for the treatment of active CD with evidence of mucosal ulceration. The pharmacokinetics (including a PK substudy) and pharmacodynamics of Compound 1 and metabolite in CD will also be characterised. A total of 180 eligible subjects will be randomized to receive Compound 1 or placebo in addition to their stable background treatment (eg, corticosteroids, aminosalicylates, or CD-related antibiotics). The study will consist of 2 parts, with total treatment duration of 20 weeks. Randomization in Part 1 will be stratified according the subject's previous anti-TNF exposure/response, CRP level at Screening, and oral corticosteroid use at visit Day −1. After the first 10 weeks of treatment in Part 1, patients will be re-randomized for Part 2 as shown in the diagram below and will be stratified according to the subject's clinical response, previous anti-TNF exposure/response, and oral corticosteroid use at visit Day -1. [table] AST levels determination is available at Quest Diagnostics, Clinical Trials, Quest House, 125-135 Staines Road, Hounslow, Middlesex, TW3 3JB, United Kingdom under Catalogue n#84450. For Study 3, the data are obtained at BARC Europe, 3B,Industrie Park, Zwijnaarde, B-9052 Ghent, Belgium. AST catalyzes the transamination of aspartate and 2-oxoglutarate, forming L-glutamate and oxalacetate. The oxalacetate is reduced to L-malate by malate dehydrogenase, whilst NADH is converted to NAD+, measured spectrophotometrically. Guidelines for the AST value have been issued by the association for Clinical Biochemistry and Laboratory Medicine, 130-132 Tooley Street LONDON SE1 2TU, united Kingdom, wherein the AST value should be below 34 U/l in Female and below 45 U/L in male. As disclosed in the respective study protocols for Study 1 or 2, at week 12, depending on the outcome of their treatment, the subjects may be continued in their initial treatment course, or reassigned to another treatment group in a randomized blinded fashion until week 24. Therefore, the number of subjects (N) for the period of either 12 weeks, or 24 weeks is provided to reflect this redistribution at week 12.
# [1] = 10 weeks results, 200 mg q.d., week 2
# [2] = 10 weeks results, 200 mg q.d., week 4
# [3] = 10 weeks results, 200 mg q.d., week 6
# [4] = 10 weeks results, 200 mg q.d., week 10
# [5] = 20 weeks results, 200 mg q.d. week 0 to 10, to 100 mg q.d. week 10 to 20, week 2
# [6] = 20 weeks results, 200 mg q.d. week 0 to 10, to 100 mg q.d. week 10 to 20, week 4
# [7] = 20 weeks results, 200 mg q.d. week 0 to 10, to 100 mg q.d. week 10 to 20, week 6
# [8] = 20 weeks results, 200 mg q.d. week 0 to 10, to 100 mg q.d. week 10 to 20, week 10
# [9] = 20 weeks results, 200 mg q.d. week 0 to 10, to 100 mg q.d. week 10 to 20, week 12
# [10] = 20 weeks results, 200 mg q.d. week 0 to 10, to 100 mg q.d. week 10 to 20, week 16
# [11] = 20 weeks results, 200 mg q.d. week 0 to 10, to 100 mg q.d. week 10 to 20, week 20
# [12] = 20 weeks results, 200 mg q.d. week 0 to 10, to placebo week 10 to 20, week 2
# [13] = 20 weeks results, 200 mg q.d. week 0 to 10, to placebo week 10 to 20, week 4
# [14] = 20 weeks results, 200 mg q.d. week 0 to 10, to placebo week 10 to 20, week 6
# [15] = 20 weeks results, 200 mg q.d. week 0 to 10, to placebo week 10 to 20, week 10
# [16] = 20 weeks results, 200 mg q.d. week 0 to 10, to placebo week 10 to 20, week 12
# [17] = 20 weeks results, 200 mg q.d. week 0 to 10, to placebo week 10 to 20, week 16
# [18] = 20 weeks results, 200 mg q.d. week 0 to 10, to placebo week 10 to 20, week 20
# [19] = 20 weeks results, continued 200 mg q.d., week 2
# [20] = 20 weeks results, continued 200 mg q.d., week 4
# [21] = 20 weeks results, continued 200 mg q.d., week 6
# [22] = 20 weeks results, continued 200 mg q.d., week 10
# [23] = 20 weeks results, continued 200 mg q.d., week 12
# [24] = 20 weeks results, continued 200 mg q.d., week 16
# [25] = 20 weeks results, continued 200 mg q.d., week 20
# [26] = 20 weeks results, placebo week 0 to 10, to 100 mg q.d. week 10 to 20, week 12
# [27] = 20 weeks results, placebo week 0 to 10, to 100 mg q.d. week 10 to 20, week 16
# [28] = 20 weeks results, placebo week 0 to 10, to 100 mg q.d. week 10 to 20, week 20
smiles,measurement,setting,value
"O=C(Nc1nc2cccc(-c3ccc(CN4CCS(=O)(=O)CC4)cc3)n2n1)C1CC1 [Compound 1, cyclopropanecarboxylic acid {5-[4-(1,1-dioxo-thiomorpholin-4-ylmethyl)-phenyl]-[1,2,4]triazolo[1,5-a]pyridin-2-yl}-amide]",Study 3 - AST Mean CFB,[1],3.0 IU/L
same,Study 3 - AST Mean percentage CFB,[1],20.1%
same,Study 3 - AST Mean CFB,[2],1.5 IU/L
same,Study 3 - AST Mean percentage CFB,[2],13.4%
same,Study 3 - AST Mean CFB,[3],1.3 IU/L
same,Study 3 - AST Mean percentage CFB,[3],12.0%
same,Study 3 - AST Mean CFB,[4],5.4 IU/L
same,Study 3 - AST Mean percentage CFB,[4],38.7%
same,Study 3 - AST Mean CFB,[5],1.50 IU/L
same,Study 3 - AST Mean percentage CFB,[5],11.88%
same,Study 3 - AST Mean CFB,[6],3.28 IU/L
same,Study 3 - AST Mean percentage CFB,[6],19.48%
same,Study 3 - AST Mean CFB,[7],1.40 IU/L
same,Study 3 - AST Mean percentage CFB,[7],10.05%
same,Study 3 - AST Mean CFB,[8],3.90 IU/L
same,Study 3 - AST Mean percentage CFB,[8],23.93%
same,Study 3 - AST Mean CFB,[9],1.13 IU/L
same,Study 3 - AST Mean percentage CFB,[9],10.30%
same,Study 3 - AST Mean CFB,[10],2.82 IU/L
same,Study 3 - AST Mean percentage CFB,[10],20.91%
same,Study 3 - AST Mean CFB,[11],8.15 IU/L
same,Study 3 - AST Mean percentage CFB,[11],50.50%
same,Study 3 - AST Mean CFB,[12],0.96 IU/L
same,Study 3 - AST Mean percentage CFB,[12],8.86%
same,Study 3 - AST Mean CFB,[13],1.96 IU/L
same,Study 3 - AST Mean percentage CFB,[13],13.24%
same,Study 3 - AST Mean CFB,[14],1.87 IU/L
same,Study 3 - AST Mean percentage CFB,[14],12.17%
same,Study 3 - AST Mean CFB,[15],7.17 IU/L
same,Study 3 - AST Mean percentage CFB,[15],45.50%
same,Study 3 - AST Mean CFB,[16],2.87 IU/L
same,Study 3 - AST Mean percentage CFB,[16],14.82%
same,Study 3 - AST Mean CFB,[17],2.62 IU/L
same,Study 3 - AST Mean percentage CFB,[17],16.62%
same,Study 3 - AST Mean CFB,[18],3.14 IU/L
same,Study 3 - AST Mean percentage CFB,[18],21.09%
same,Study 3 - AST Mean CFB,[19],4.24 IU/L
same,Study 3 - AST Mean percentage CFB,[19],26.67%
same,Study 3 - AST Mean CFB,[20],0.73 IU/L
same,Study 3 - AST Mean percentage CFB,[20],11.03%
same,Study 3 - AST Mean CFB,[21],1.12 IU/L
same,Study 3 - AST Mean percentage CFB,[21],12.72%
same,Study 3 - AST Mean CFB,[22],5.61 IU/L
same,Study 3 - AST Mean percentage CFB,[22],43.70%
same,Study 3 - AST Mean CFB,[23],1.64 IU/L
same,Study 3 - AST Mean percentage CFB,[23],18.27%
same,Study 3 - AST Mean CFB,[24],3.78 IU/L
same,Study 3 - AST Mean percentage CFB,[24],32.98%
same,Study 3 - AST Mean CFB,[25],1.53 IU/L
same,Study 3 - AST Mean percentage CFB,[25],19.45%
same,Study 3 - AST Mean CFB,[26],1.64 IU/L
same,Study 3 - AST Mean percentage CFB,[26],16.84%
same,Study 3 - AST Mean CFB,[27],0.68 IU/L
same,Study 3 - AST Mean percentage CFB,[27],10.89%
same,Study 3 - AST Mean CFB,[28],1.10 IU/L
same,Study 3 - AST Mean percentage CFB,[28],16.93%
